Experimental data: patent publication US20260242391A1 (priority 2023, published 2026)

Columns and labels:
MDS-L cells = conditions: MDS-L cells; for Induction of differentiation of MDS-L cells (GlyA positivity), in words: anti-GlyA immunopositivity; for Maximal MDS-L GlyA fold induction / EC50: anti-CD235a (GlyA) flow cytometry; for EC50: read-out: MDS-L GlyA induction EC50
Experimental: MDS-L differentiation assay.
MDS-L were cultured in RPMI (17-105-CV, Corning) without phenol red and supplemented with 2 mM glutamine and 10% FBS. Cells first expanded in IL-3 until 70% confluence then pre-conditioned for 14 days with IL-3 (200-03, PeproTech), GCSF (300-23, PeproTech), and EPO (287-TC, R&D Systems) to promote erythroid and myeloid differentiation. A density of 10,000 cells per well were used in phenotypic assays. MDSL cells were spun and treatment media was replaced with media containing APC Anti-CD235a (GlyA) (551336, BD Biosciences) (1.25 μL per 50 L test) and incubated for 1 hour at 4° C. Cells were washed then counter stained with SYTOX-Green 1 M per 100 L prior to flow cytometry analysis. Dose response and pharmacological assays were analyzed using a ZE5 Cell Analyzer (BioRad) equipped with Everest software. Single, live, cells were analyzed for GlyA expression using FlowJo v10.7.2 software.

HL-60 = HL-60 differentiation potency; format: cell-based; conditions: Homo sapiens
in vitro = conditions: human

| Compound | EC50 (HL-60) [nM] | IC50 (in vitro) [nM] | other results |
| --- | --- | --- | --- |
| CCCCCCCCCCCCCC(=O)O[C@@H]1[C@@H](C)[C@@]2(O)[C@@H](C=C(CO)C[C@]3(O)C(=O)C(C)=C[C@@H]23)[C@@H]2C(C)(C)[C@]12OC(C)=O [phorbol 12-myristate 13-acetate (PMA), phorbol 12-myristate 13-acetate] |  |  | Induction of differentiation of MDS-L cells (GlyA positivity), in words (MDS-L cells): efficacious at inducing differentiation |
| Arterolane [Arterolane (OZ-277)] |  |  | Maximal MDS-L GlyA fold induction (MDS-L cells): 7.02 fold; EC50 (MDS-L cells): 1740 nM |
| Cc1c(-c2ccc(-c3ccccc3F)cc2)nc2ccc(F)cc2c1C(=O)O [Brequinar] |  |  | Induction of differentiation of MDS-L cells (GlyA positivity), in words (MDS-L cells): efficacious at inducing differentiation |
| CC1=C(/C=C/C(C)=C/C=C/C(C)=C/C(=O)O)C(C)(C)CCC1 [ATRA, retinoic acid] |  |  | Cytotoxicity as readout by live dead cell gating (MDS-L cells): minimal cytotoxicity |
| C[C@@H]1CC[C@H]2[C@@H](C)C(=O)O[C@@H]3O[C@@]4(C)CC[C@@H]1[C@]32O4 [2-deoxy-artemisinin] |  |  | Induction of differentiation of MDS-L cells (GlyA positivity), in words (MDS-L cells): inactive |
| C[C@H]1[C@H](OCC23[C@H]4[C@H]5[C@@H]2[C@H]2[C@@H]3[C@@H]4C52C(=O)O)O[C@@H]2O[C@@]3(C)CC[C@H]4[C@H](C)CC[C@@H]1[C@@]24OO3 (stereo partly drawn) [Compound 260, (2R,3R,5R,6R,7R, 8R)-4-((((3R,5aS,6R,8aS, 9R,10R,12R, 12aR)-3,6,9-trimethyldeca-hydro-12H-3,12-epoxy[1,2]dioxepino[4,3-i]isochromen-10-yl)oxy)methyl) cubane-1-carboxylic acid] | 422 | > 20000 |  |
| C[C@H]1[C@@H](OC[C@H]2CCC(C(=O)O)CO2)O[C@@H]2O[C@@]3(C)CC[C@H]4[C@H](C)CC[C@@H]1[C@@]24OO3 (stereo partly drawn) [Compound 212, (6R)-6-((((3R,5aS,6R,8aS, 9R,10S,12R, 12aR)-3,6,9-trimethyldeca-hydro-12H-3,12-epoxy[1,2]dioxepino[4,3-i]isochromen-10-yl)oxy)methyl) tetrahydro-2H-pyran-3-carboxylic acid] | 20500 | > 20000 |  |
| C[C@H]1[C@@H](Oc2cc(F)cc(OCC(=O)O)c2)O[C@@H]2O[C@@]3(C)CC[C@H]4[C@H](C)CC[C@@H]1[C@@]24OO3 [Compound 220, 2-(3-fluoro-5-(((3R,5aS,6R,8aS, 9R,10S,12R, 12aR)-3,6,9-trimethyldeca-hydro-12H-3,12-epoxy[1,2]dioxepino[4,3-i]isochromen-10-yl)oxy)phenoxy) acetic acid] | 70.8 | 1880 |  |
| C[C@H]1[C@@H](Oc2ccc(O[C@H]3CC[C@@H](C(=O)O)CC3)cc2)O[C@@H]2O[C@@]3(C)CC[C@H]4[C@H](C)CC[C@@H]1[C@@]24OO3 [Compound 243, (1R,4s)-4-(4-(((3R,5aS,6R,8aS, 9R,10S,12R, 12aR)-3,6,9-trimethyldeca-hydro-12H-3,12-epoxy[1,2]dioxepino[4,3-i]isochromen-10-yl)oxy)phenoxy) cyclohexane-1-carboxylic acid] | 74.2 | 720 |  |
| Artefenomel [Artefenomel (OZ-439)] |  |  | Maximal MDS-L GlyA fold induction (MDS-L cells): 3.71 fold; EC50 (MDS-L cells): 5650 nM |
| C[C@H]1[C@@H](Oc2ccc(C(=O)NC3(C(=O)O)COC3)cc2Cl)O[C@@H]2O[C@@]3(C)CC[C@H]4[C@H](C)CC[C@@H]1[C@@]24OO3 [Compound 265, 3-(3-chloro-4-(((3R,5aS,6R,8aS, 9R,10S,12R, 12aR)-3,6,9-trimethyldeca-hydro-12H-3,12-epoxy[1,2]dioxepino[4,3-i]isochromen-10-yl)oxy)benzamido) oxetane-3-carboxylic acid] | 6450 | 17200 |  |
| C[C@H]1[C@@H](Oc2ccc([C@@H](C)C(=O)O)cc2F)O[C@@H]2O[C@@]3(C)CC[C@H]4[C@H](C)CC[C@@H]1[C@@]24OO3 [Compound 279, (R)-2-(3-fluoro-4-(((3R,5aS,6R,8aS, 9R,10S,12R, 12aR)-3,6,9-trimethyldeca-hydro-12H-3,12-epoxy[1,2]dioxepino[4,3-i]isochromen-10-yl)oxy)phenyl) propanoic acid] | 26.8 | 4860 |  |
